This passage reports IC50 results from PubChem BioAssay AID1417 (Emory University Molecular Libraries Screening Center, 2008).

For this test, the target named is Induced myeloid leukemia cell differentiation protein Mcl-1 (Homo sapiens) (UniProt Q07820). Briefly: Mcl-1 Noxa peptide disruption concentration-response – biochemical, TR-FRET, dose response (AID 1417). To be noted: Mcl-1/Noxa peptide interaction, cell-free TR-FRET (terbium/rhodamine), 2 h; measured here: absolute IC50.

Some results are limits rather than exact numbers.

Sequence of Induced myeloid leukemia cell differentiation protein Mcl-1 (Homo sapiens) (Q07820 whole entry, looked up): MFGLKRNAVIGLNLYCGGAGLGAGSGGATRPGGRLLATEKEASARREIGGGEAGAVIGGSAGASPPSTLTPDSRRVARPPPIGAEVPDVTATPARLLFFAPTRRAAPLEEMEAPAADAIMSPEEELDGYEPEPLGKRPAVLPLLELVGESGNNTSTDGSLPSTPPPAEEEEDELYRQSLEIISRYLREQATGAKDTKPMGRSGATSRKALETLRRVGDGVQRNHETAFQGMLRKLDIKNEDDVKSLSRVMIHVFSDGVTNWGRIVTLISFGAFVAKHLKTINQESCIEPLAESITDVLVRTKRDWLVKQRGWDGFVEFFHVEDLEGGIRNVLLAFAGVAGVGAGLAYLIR

`Oc1cccc2cc3cccc(O)c3c(O)c12` gave an IC50 of 1.96 µM.

As for `O=C1c2ccccc2C(=O)N1/N=C/c1ccc(O)c(O)c1O`, the IC50 was below 0.4 µM.

As for `CC(=O)c1ccc(-n2c(CCC(=O)O)ccc2-c2cccs2)cc1`, the IC50 was above 54 µM.

For `CC(=O)Nc1ccc(C2=NNC(=Nc3ccc(S(=O)(=O)N4CCOCC4)cc3)SC2)cc1`, the IC50 is below 0.4 µM.

`CN(C)c1ccc(NS(=O)(=O)c2cccc(Cl)c2)cc1` displayed an IC50 above 54 µM.

Turning to `FC(F)(F)C1=CC(c2ccccc2)=NCCN1`, the IC50 is above 54 µM.

As for `Cc1ccc(N=Nc2ccc(O)c(/C=N\NC(=O)c3ccc(N)cc3)c2)cc1C`, the IC50 was 2.24 µM.

`CCC1CCCCN1S(=O)(=O)c1ccc(S(=O)(=O)N(Cc2ccccn2)CC2CCCO2)cc1` (stereo not drawn): the IC50 is above 54 µM.

`O=C(Nc1ccc(Cl)cc1)Nc1nnc(/C=C/c2ccccc2)s1` had an IC50 of 4.06 µM. That is a single-digit micromolar value.

In turn, `Cc1ccc(Cn2c(=N)c(C(=O)NCc3ccco3)cc3c(=O)n4ccccc4nc32)cc1` showed an IC50 of 3.6 µM.

Consider `CC(C)OC(=O)Cn1cnc2ccc(Br)cc2c1=O`, for which the half-inhibitory concentration (IC50) was above 54 µM.

`Cc1ccc(/C=C2\SC(=S)N(/N=C/c3cc([N+](=O)[O-])ccc3O)C2=O)o1` registered an IC50 below 0.4 µM.

`O=C(COC(=O)c1ccc(NS(=O)(=O)c2cccs2)cc1)NCc1ccco1` yielded an IC50 of 2.41 µM. That is a single-digit micromolar value.

`O=C(CN1CCN(c2ccc(O)cc2)CC1)Nc1cc([N+](=O)[O-])ccc1Cl` had an IC50 of 6.48 µM.

As to `CCC1CSC(Nc2ccc(C(=O)/C=C/c3cccc(C)c3)cc2)=N1` (stereo not drawn), the IC50 was below 0.4 µM.

Regarding `Brc1ccc(C2Nc3cccc4cccc(c34)N2)s1`, the half-maximal inhibitory concentration (IC50) was below 0.4 µM.

`O=C(Nc1cccc(S(=O)(=O)NC2=NCCC2)c1)c1cc(-c2ccco2)nc2ccccc12`: the IC50 was below 0.4 µM.

Regarding `Oc1ccc(/C=N/Nc2ccnc3cc(Cl)ccc23)cc1O`, the IC50 amounted to 1.99 µM. This lies in the single-digit micromolar range.

`Cc1ccc([N+](=O)[O-])cc1N=Nc1c(-c2ccc([N+](=O)[O-])cc2)[nH]n(C(N)=S)c1=O` showed an IC50 below 0.4 µM.

In the case of `Cc1[nH]n(-c2ncc(-c3ccccc3)s2)c(=O)c1C(c1ccc(Br)cc1)C(C#N)C#N` (stereo not drawn), the IC50 amounted to 6.54 µM.

Take `COC(=O)C1=Nc2ccccc2/C1=C\c1c(O)n(-c2ccc(Br)cc2)c(=O)[nH]c1=O`: the IC50 came to 7.49 µM.

`CCN1C(=O)/C(=C2/Sc3ccc(OC)cc3N2C)SC1=Nc1cccc(O)c1` had an IC50 above 54 µM.

Take `COc1ccc(CCNC(=O)CN(c2ccc(OC)c(OC)c2)S(C)(=O)=O)cc1`: the IC50 is above 54 µM.

Consider `O=c1cc(-c2ccccc2Cl)oc2c(NS(=O)(=O)c3cc(Cl)cc(Cl)c3O)ccc(O)c12`, for which the IC50 came to 2.41 µM.

`CC(C(=O)NC1CCCC1)N(Cc1ccco1)C(=O)c1snc(C(=O)NC2CCCC2)c1N` (stereo not drawn): the IC50 was above 54 µM.

The compound `O=C1CCCCC1C(=O)c1ccccc1` (stereo not drawn) yielded an IC50 above 54 µM.

`CC1=C(C#N)C(=O)NC(=O)/C1=C/c1ccc(-c2ccc(S(N)(=O)=O)cc2)o1` gave an IC50 below 0.4 µM.

In turn, `O=C(NCC1CCCO1)c1ccc(Cn2c(=S)[nH]c3ccccc3c2=O)cc1` (stereo not drawn) returned an IC50 above 54 µM.

Compound `CCC(C)NCCCOc1c(C)cc(C)cc1Br` (stereo not drawn) displayed a half-inhibitory concentration (IC50) above 54 µM.

For `C=CCOC(=O)C1=C(C)N=c2s/c(=C3\C(=O)N(CC(=O)O)c4ccccc43)c(=O)n2C1c1ccc(OC)cc1` (stereo not drawn), the IC50 was determined as 3.48 µM.

In the case of `Cc1nc(C)c(C(=O)Nc2nc3c(C)cccc3s2)o1`, the IC50 turned out to be 2.63 µM.

On to `O=C(O)CC(CCc1ccccc1)OC1OC(CO)C(O)C(O)C1O` (stereo not drawn), for which the concentration for half-maximal inhibition (IC50) was below 0.4 µM.

The compound `COc1ccc(C(CC(=O)N2CCCC2)c2c(OC)cc(OC)c3c(-c4ccccc4)cc(=O)oc23)cc1` (stereo not drawn) showed an IC50 of 3.89 µM.

In turn, `O=C(CSc1cccc[n+]1[O-])Nc1cc2c(cc1Cl)C(=O)c1ccccc1C2=O` registered an IC50 of 3.74 µM.

In the case of `Cc1cccc(NC(=O)CSc2nnc(-c3ccco3)c(-c3ccco3)n2)c1C`, the IC50 worked out at 6.47 µM.

On to `Nc1c(C(=O)NCCN2CCOCC2)c2nc3ccccc3nc2n1Cc1ccco1`, for which the IC50 is above 54 µM.

In the case of `O=c1c2c3c(sc2[nH]c(=S)n1Cc1ccco1)CCC3`, the IC50 was determined as 1.42 µM.

`CCCSC1=N/C(=C\c2ccc([N+](=O)[O-])o2)C(=O)S1`: the IC50 came to 3.01 µM.

For `C/C(=N\NC(=O)c1cccc(N/N=C(\C)c2ccco2)c1)c1ccco1`, the IC50 was determined as 2.88 µM. The IC50 values of the last two compounds are within 1.5-fold of each other.

The compound `COc1ccccc1C(=O)N=Nc1c(O)[nH]c2ccc([N+](=O)[O-])cc12` returned an IC50 of 4.72 µM.

Compound `COc1cc2c(ccc3cc(OC)c(OC)c(O)c32)cc1O` had an IC50 below 0.4 µM.

Compound `COc1ccc(C(=O)C[n+]2ccc(-c3nnc4n3CCCCC4)cc2)cc1` had an IC50 of 23.1 µM.

Consider `O=C1NC(=S)N(C2CC2)C(=O)/C1=C/c1ccc2c(c1)CCN2CCCCl`, for which the IC50 stood at 0.728 µM.

Turning to `Nc1ccc(N)c(C(=O)O)c1`, the IC50 was 1.31 µM.

On to `O=C(CCN1CCN(c2ccccc2)CC1)N/N=C/c1ccc(O)c(O)c1O`, for which the IC50 is below 0.4 µM.

Consider `O=C1OC(c2cccs2)=N/C1=C/c1ccc(-c2cccc(C(=O)O)c2)o1`, for which the IC50 was above 54 µM.

As for `O=C(Nc1ccc2nc3ccccc3nc2c1)c1ccccc1`, the IC50 turned out to be 29.6 µM.

`COc1ccc(N2CCC(CNC(=O)Nc3ccc(OC)cc3OC)C2)cc1` (stereo not drawn) yielded an IC50 of 1.24 µM.

With `Nc1nc(=S)c2ncn(C3OC(CO)C(O)C3O)c2[nH]1` (stereo not drawn), the IC50 is 9.52 µM. Compared with the last compound, the IC50 is about 7.7-fold higher.

For `CCCCCCCCCCCCCCCC[n+]1cccc2ccccc21`, the IC50 was 5.34 µM.

The compound `Cc1ccc(/C=c2\sc3nc(-c4ccccc4Br)nn3c2=O)o1` showed an IC50 of 4.37 µM.

For `O=C(O)c1ccc(N2C(=O)/C(=C/c3ccc(-c4ccc([N+](=O)[O-])cc4)o3)C=C2c2ccccc2)cc1`, the IC50 is below 0.4 µM.

On to `O=C(O)CCc1nc(-c2cccs2)no1`, for which the IC50 was above 54 µM.

`COCCN=c1scc(-c2ccco2)n1/N=C/c1ccc(O)c(O)c1O`: the IC50 is below 0.4 µM.

Regarding `O=[N+]([O-])c1ccc(-c2c[nH]c(=S)[nH]2)cc1`, the IC50 stood at 0.8 µM.

`O=C(O)c1ccccc1/C=N/NC(=O)c1cc(-c2ccco2)nc2ccccc12` gave an IC50 below 0.4 µM.

In turn, `COc1ccc(-n2nc3cc(C)c(N)c(Br)c3n2)cc1` came in with an IC50 of 2.86 µM.

The compound `COc1ccccc1/C=C1/SC(=O)N(CCC(=O)Nc2ccc(S(=O)(=O)Nc3nccs3)cc2)C1=O` gave an IC50 of 2.85 µM.

For `Cc1cc(C)c2nc(-c3ccccn3)cc(C(=O)Nc3ccc(S(=O)(=O)Nc4onc(C)c4C)cc3)c2c1`, the IC50 was found to be 2.82 µM.

Compound `COc1cccc(/C=N/Nc2ncnc3c2[nH]c2ccc(C)cc23)c1OC` had an IC50 of 4.21 µM.

The compound `NS(=O)(=O)c1ccc(-c2ccc(/C=C3\SC(=S)N(C4CCS(=O)(=O)C4)C3=O)o2)cc1` (stereo not drawn) yielded an IC50 of 2.55 µM. This IC50 lies about 1.7-fold lower than the previous one.

The compound `CC(=O)Nc1sc(N/N=C\c2ccc(O)cc2)nc1-c1cccs1` showed an IC50 of 1.07 µM.

Regarding `COc1ccc(-c2ccc3c(n2)sc2c(=O)[nH]c(=O)[nH]c23)cc1OC`, the IC50 is below 0.4 µM.

With `O=C(O)CCCCCN1C(=O)/C(=C\c2ccc(-c3ccc(Cl)cc3)o2)SC1=S`, the IC50 worked out at 1.36 µM.

For `Cc1ccc2c(c1)NC(=O)c1cccnc1N2`, the IC50 is above 54 µM.

For the compound `NS(=O)(=O)c1ccc(NC(=S)NC(=O)/C=C/c2ccco2)cc1`, the IC50 came to 6.75 µM.

Compound `CCC1=NNc2cccc3c(OC)ccc1c23` gave an IC50 above 54 µM.

Consider `Cc1cc(NC(=O)Cc2cccs2)no1`, for which the IC50 was below 0.4 µM.

Take `O=C(O)CCC(=O)NCCC1=c2ccccc2=N/C1=C\c1c(O)n(Cc2ccc(F)cc2)c(=S)[nH]c1=O`: the IC50 is below 0.4 µM.

`Cc1ccc(-c2cc(C(=O)NCCCn3ccnc3)c3cc(Br)ccc3n2)o1`: the half-inhibitory concentration (IC50) was above 54 µM.

With `COc1cc(C(c2nnnn2C2CCCC2)N2CCc3ccccc3C2)ccc1O` (stereo not drawn), the IC50 is below 0.4 µM.

As to `CNCc1ccccc1Sc1cc(O)ccc1O`, the IC50 is 4.17 µM.

`CCOC(=O)C1CCCN(c2ccc(NC(=O)c3snc4c(=O)[nH]c(C)nc34)cc2)C1` (stereo not drawn) came in with an IC50 of 6.54 µM.

`O=C(Cn1c(=O)n(-c2ccccc2)c(=O)c2sccc21)N1CCCC1`: the IC50 is above 54 µM.

In turn, `COc1ccc(Nc2cc(C)c3c(O)cccc3n2)cc1` gave an IC50 of 7.12 µM.

In turn, `COc1ccc(C(=O)N=c2c(C#N)cc3c(=O)n4cccc(C)c4nc3n2Cc2ccco2)cc1` yielded an IC50 of 13.8 µM.

In turn, `CCC(C)(C)n1nnnc1C(c1ccc(O)c(OC)c1)N1CCc2ccccc2C1` (stereo not drawn) displayed an IC50 below 0.4 µM.

On to `O=C1/C(=C\c2ccccn2)SC(=S)N1c1ccc(S(=O)(=O)Nc2nccs2)cc1`, for which the IC50 came out at 2.69 µM.

`O=[N+]([O-])c1cccc(N/N=C/c2cc([N+](=O)[O-])ccc2O)c1` registered an IC50 of 0.428 µM.

`Cc1ccc(CNC(=O)c2ccc3c(=O)[nH]c4c(C(=O)NCC5CCCO5)sc(=S)n4c3c2)cc1` (stereo not drawn) yielded a concentration for half-maximal inhibition (IC50) of 11.1 µM.

Take `C=CCc1cccc2cc(C(=O)Nc3ccc(S(=O)(=O)Nc4nnc(CC)s4)cc3)c(=O)oc12`: the IC50 was 1.54 µM.

Consider `CCN(c1ccc(NC(=O)COC(=O)c2ccc(C)c(S(=O)(=O)N3CCOCC3)c2)cc1)C(C)C`, for which the half-maximal inhibitory concentration (IC50) was above 54 µM.

Turning to `Cc1ccc(/C=C2/SC(=O)NC2=S)o1`, the IC50 amounted to 4.11 µM.

`Cc1ccc(-c2cc(C(=O)N3CCN(c4ncccn4)CC3)c3cc(Br)ccc3n2)o1` returned an IC50 of 3.78 µM.

As to `O=C(O[C@@H]1OC2COC(=O)c3cc(O)c(O)c(O)c3-c3c(cc(O)c(O)c3O)C(=O)O[C@@H]([C@H]1O)[C@@H]2O)c1cc(O)c(O)c(O)c1`, the IC50 was below 0.4 µM.

In the case of `CCOC1=C/C(=C/c2c(N)n3nc(-c4ccccc4)sc3nc2=O)C=CC1=O`, the IC50 was 2.43 µM. That is a single-digit micromolar value.

Consider `O=C(N/N=C/c1ccc(-c2ccc(Cl)c(C(=O)O)c2)o1)c1cc2c(ccc3ccccc32)o1`, for which the IC50 was below 0.4 µM.

In turn, `CC1=NNC(=O)C1CC(=O)N/N=C(\C)c1ccco1` (stereo not drawn) had an IC50 above 54 µM.

The compound `CC(=O)c1sc2nc(CSc3nnnn3-c3ccccc3)[nH]c(=O)c2c1C` came in with an IC50 of 0.93 µM.

Turning to `COc1cc(/C=C2/SC(=O)NC2=O)ccc1Oc1ccc([N+](=O)[O-])cc1[N+](=O)[O-]`, the IC50 amounted to 4.2 µM.

On to `O=C(Nc1ccc(N2CCOCC2)cc1)Nc1ccc(Cl)c(Cl)c1`, for which the IC50 is above 54 µM.

Take `Cc1ccc(N=Nc2c(N)[nH]n3c(=O)cc(-c4ccccc4)nc23)cc1`: the IC50 stood at 14 µM.

For the compound `Cc1[nH]n(-c2ncc(-c3ccc(Cl)cc3)s2)c(=O)c1C(c1ccc(Cl)cc1)C(C#N)C#N` (stereo not drawn), the IC50 was found to be 1.67 µM.
